# Tests used:
# [1] = system: Human non-small cell lung cancer NCI-H358; experiment: Cell proliferation assay (CellTiter-Glu) in NCI-H358; type: cell-based; details: 5 days, NCI-H358 cells, cell viability by CellTiter-Glu, compound 0.3 nM-2 μM, medium and compound renewed after 3 days
# Method: Cell proliferation inhibition screening method was established by CellTier-Glu® test reagent from Promega.
# Human non-small cell lung cancer NCI-H358 was cultured by RPMI-1640 (Gibco®) medium with 10% fetal bovine serum (Gibco®) at 37° C., 95% air and 5% CO2, in 25 cm^2 or 75 cm^2 plastic culture bottle ((Nunc®) and passaged 2-3 times a week.
# The cells were seeded on the 96 well cell culture plate (Nunc®) at the density of 2*10^3/well, 90 μL/well, and cultured at 37° C., 95% air and 5% CO2. The compound to be tested was added 24 hours later: the compound was diluted 3 times with DMSO from the concentration of 2 mM compound (dissolved in DMSO). […] 10 μL of the compound diluted by culture medium was added into the culture plate seeded with cells. The final concentration of DMSO in cell culture medium was 0.1%, and the final concentration of test compound was 0.3 nM-2 μM. The cells were incubated at 37° C. for 3 days. The culture medium was substituted with 90 μL/well fresh complete medium. According to the above diluting method of compounds, the compound to be tested was added.
# After 5 days, cell viability was tested by CellTiter-Glu (Promega) kit, and finally, the semi-inhibitory concentration of compounds on cell proliferation, i.e. IC50 was calculated by Prism program.
# SHP2 = SHP2 (Homo sapiens (Human), UniProt Q06124); experiment: Detection of in vitro SHP2 protein activity by DiFMUP fluorescence; type: biochemical; details: read-out: Phosphatase activity SHP2 IC50; DiFMUP substrate, fluorescence Ex340/Em450, 60 min pre-incubation with polypeptide; read-out: Proteinase activity SHP2 IC50
# Text: The screening method of SHP2 protein activity was established by fluorescence detection. The basic principle is: SHP2 as phosphatase can catalyze the dephosphorization of DiFMUP to form DiFMU and free phosphate groups. The product DiFMU emits fluorescence under 340 nm excitation, and 450 nm emission is collected. If the binding of small molecule compounds with SHP2 can inhibit the activity of SHP2 enzyme, the 450 nm emission light detected will be weakened, and the activity of SHP2 enzyme will be finally reflected by the intensity of fluorescence value.
# The specific operation was as follows: the 10 mM compound stock solution was diluted to 1 mM with DMSO, and then diluted 3 times with DMSO. 95 μL reaction buffer (60 mM HEPES), 75 mM NaCl, 75 mM KCl, 1 mM EDTA, 5 mM DTT, 1 μL gradient diluted compound, 2 μL SHP2 (concentration was 2 μg/μL) and 1 μL polypeptide (concentration was 50 mM) were added into each well of a 96 well flat clear bottom black plate (costar, 3603). The above test mixture was incubated at room temperature in dark for 60 minutes. Then 2 μL of 10 mM DiFMUP was added into each well, and was incubated at room temperature for 30 minutes. Fluorescence value was determined in the enzyme reader at Ex340/Em450. IC50 of the compounds was obtained by the data analysis software Prism.
# hERG channel = hERG channel (Homo sapiens (Human), UniProt Q12809); experiment: hERG inhibitory activity, whole cell patch clamp in hERG-transfected HEK293 cells; type: cell-based; details: HEK293 cells transfected with hERG, tail current, tested at 30, 10, 2, 0.5, 0.1 μM
# Method: Patch Clamp Amplifier System (Multiclamp 700B Amplifier) (AXON), Olympus microscope (Olympus IX51/71/73), and MP285 micromanipulator were used.
# HEK293 cell line for transfecting hERG was purchased from Invitrogen Company. The cells were grown in the culture medium with 85% DMEM, 10% fetal bovine serum, 0.1 mM NEAA, 25 mM HEPES buffer, 100 U/mL penicillin-streptomycin, 5 μg/mL blasticidin and 400 μg/mL G418 geneticin.
# The cells were passaged three times a week and digested with TrypLE Express to maintain a fusion degree of about 40% to 80%. Before testing, the cells were seeded at the density of 5*10^5 cells/petri dish with a diameter of 6 cm and the cells were induced with 1 μg/ml doxycycline for 48 hours.
# The test concentration of the compound solution was 30, 10, 2, 0.5, 0.1 μM after 1000-fold dilution and the final concentration of DMSO was in the range of 0.1%.
# The manipulator was adjusted to move the electrode tip to the cell surface to form a high sealing. Liquid connection potential and fast capacitance were compensated, and the cell membrane was broken to form a whole cell recording mode. The membrane potential was set as −60 mV to ensure that the HERG channel was not opened. Cslow on the amplifier was used to eliminate the peak of capacity current. Holding voltage was set as […]. The leakage current test was performed at −80 mV for 500 ms. +30 mV was depolarized for 4.8 seconds, and HERG channel was activated. The voltage was restored to −50 mV for 5.2 seconds, and the tail current was observed. Peak current suppression=[1−(peak tail currentinhibitor−peak tail currentpositive control)/(peak tail currentblank−peak tail currentpositive control)]*100
# The dose response curve of hERG current inhibition rate versus the concentration of the tested compound was plotted by using Graphpad Prism 8.0 software.
# Chain of hERG channel (Q12809 whole entry): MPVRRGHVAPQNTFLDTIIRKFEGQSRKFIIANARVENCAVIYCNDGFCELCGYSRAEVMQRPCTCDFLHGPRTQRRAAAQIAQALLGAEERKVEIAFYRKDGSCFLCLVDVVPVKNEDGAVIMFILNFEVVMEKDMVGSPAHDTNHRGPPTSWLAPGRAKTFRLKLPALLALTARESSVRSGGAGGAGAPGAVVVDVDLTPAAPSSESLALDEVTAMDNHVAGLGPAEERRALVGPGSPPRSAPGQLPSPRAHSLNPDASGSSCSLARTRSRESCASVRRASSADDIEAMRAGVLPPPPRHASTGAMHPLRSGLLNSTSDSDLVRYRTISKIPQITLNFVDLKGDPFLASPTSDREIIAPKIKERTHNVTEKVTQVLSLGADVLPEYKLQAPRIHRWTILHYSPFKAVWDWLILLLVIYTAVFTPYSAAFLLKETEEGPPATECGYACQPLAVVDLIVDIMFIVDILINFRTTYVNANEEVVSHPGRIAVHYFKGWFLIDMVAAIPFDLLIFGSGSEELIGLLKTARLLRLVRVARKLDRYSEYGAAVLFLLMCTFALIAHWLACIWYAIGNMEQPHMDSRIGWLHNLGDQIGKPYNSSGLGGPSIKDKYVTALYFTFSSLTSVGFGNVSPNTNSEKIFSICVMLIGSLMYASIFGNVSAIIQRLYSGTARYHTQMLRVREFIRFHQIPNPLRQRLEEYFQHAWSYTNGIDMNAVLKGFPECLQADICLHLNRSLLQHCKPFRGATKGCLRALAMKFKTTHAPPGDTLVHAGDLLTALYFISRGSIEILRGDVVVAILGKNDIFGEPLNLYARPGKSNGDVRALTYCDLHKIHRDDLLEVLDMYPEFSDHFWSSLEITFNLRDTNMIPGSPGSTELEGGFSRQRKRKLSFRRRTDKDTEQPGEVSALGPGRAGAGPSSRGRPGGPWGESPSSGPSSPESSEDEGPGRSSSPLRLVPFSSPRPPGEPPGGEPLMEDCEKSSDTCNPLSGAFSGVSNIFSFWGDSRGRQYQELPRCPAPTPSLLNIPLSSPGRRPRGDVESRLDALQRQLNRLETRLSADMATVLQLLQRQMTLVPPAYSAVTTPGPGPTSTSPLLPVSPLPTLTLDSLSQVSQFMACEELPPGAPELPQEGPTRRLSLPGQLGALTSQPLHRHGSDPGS
SMILES,IC50 [1] [nM],IC50 (SHP2) [nM],IC50 (hERG channel) [nM]
"Cc1nc(N2CCC3(CC2)Cc2ccccc2[C@H]3N)c(CO)nc1-c1cccc(Cl)c1Cl [Compound 1, (S)-(3-(1-amino-1,3-dihydrospiro[indene-2,4′-piperidin]-1′-yl)-6-(2,3-dichlorophenyl)-5-methylpyrazin-2-yl)methanol]",88,9,< 100
"Cc1nc(N2CCC3(CC2)Cc2ccc(C#N)cc2[C@H]3N)c(CO)nc1-c1cccc(Cl)c1Cl [Compound 2, (S)-1-amino-1′-(5-(2,3-dichlorophenyl)-3-(hydroxymethyl)-6-methylpyrazin-2-yl)-1,3-dihydrospiro[indene-2,4′-piperidine]-6-carbonitrile]",84,35,
"Cc1nc(N2CCC3(CC2)Cc2ncccc2[C@H]3N)c(CO)nc1-c1cccc(Cl)c1Cl [Compound 13, (S)-(3-(5-amino-5,7-dihydrospiro[cyclopenta[b]pyridine-6,4′-piperidin]-1′-yl)-6-(2,3-dichlorophenyl)-5-methylpyrazin-2-yl)methanol]",1.6,,< 100
Cc1ccc2c(c1)[C@@H](N)C1(CCN(c3nc(C)c(-c4ccnc(Cl)c4Cl)nc3CO)CC1)C2 [Compound 21],11,,3030
Cc1cncc(-c2nc(CO)c(N3CCC4(CC3)Cc3ccccc3[C@H]4N)nc2C)c1Cl [Compound 61],63,,
Cc1nc(N2CCC3(CC2)Cc2ccccc2[C@H]3N)c(CO)nc1-c1ccnc(C(F)(F)F)c1Cl [Compound 62],15,,4230
COc1ccc2c(c1)[C@@H](N)C1(CCN(c3nc(C)c(-c4ccnc(Cl)c4Cl)nc3CO)CC1)C2 [Compound 72],65.9,,2590
Cc1nc(N2CCC3(CC2)Cc2ccccc2[C@H]3N)c(CO)nc1-c1ccnc(C#N)c1Cl [Compound 77],33,,620

# Continued, in another order:
IC50 [1] [nM],IC50 (SHP2) [nM],SMILES,IC50 (hERG channel) [nM]
30,,Cc1nc(N2CCC3(CC2)Cc2ccccc2[C@H]3N)c(CO)nc1-c1cc(N)nc(Cl)c1Cl [Compound 47],4290
28,,Cc1cnc2c(c1)[C@@H](N)C1(CCN(c3nc(C)c(-c4ccnc(Cl)c4Cl)nc3CO)CC1)C2 [Compound 49],1800
75,,Cc1cnc2c(c1)[C@@H](N)C1(CCN(c3nc(C)c(-c4ccnc(C)c4Cl)nc3CO)CC1)C2 [Compound 60],
40,,Cc1ccc2c(c1)[C@@H](N)C1(CCN(c3nc(C)c(-c4cc(N)nc(Cl)c4Cl)nc3CO)CC1)C2 [Compound 63],
22,,Cc1cnc2c(c1)[C@@H](N)C1(CCN(c3nc(C)c(-c4cc(N)nc(Cl)c4Cl)nc3CO)CC1)C2 [Compound 64],6130
530,,Cc1cnc2c(c1)[C@@H](N)C1(CCN(c3nc(C)c(-c4ccnc(Cl)c4Cl)nc3C(C)O)CC1)C2 (stereo partly drawn) [Compound 68],
25,,COc1nccc(-c2nc(CO)c(N3CCC4(CC3)Cc3ncc(C)cc3[C@H]4N)nc2C)c1Cl [Compound 76],2110

# Reference: patent US12209074B2, “SHP2 phosphatase allosteric inhibitor” (BEIJING SHENOGEN PHARMA GROUP LTD., priority 2019, dated 2025)
